Measured values taken from US11882846B2, “Use of kefir peptide for improving or treating depressive behaviors and related diseases” (National Chung Hsing University, priority 2021, dated 2024).
Counter-ions that a name gives are not always drawn.

Assays:
CD-1 mice [1] = assay: Tail suspension test (TST); assay type: in vivo; conditions: 7th day, 30 minutes after oral treatment, 6 minute test, measured in the last 4 minutes; kefir fermentation product 150 mg/kg, peptides 10 mg/kg; average±standard deviation
Method: Refer to the steps of Example 2, the CD-1 mice are randomly divided into five groups and raised under the following conditions: • the first group: take distilled water orally; • the second group: take 150 mg/kg kefir fermentation product orally; • the third group: take the peptide 1 (10 mg/kg) disclosed in Example 1 orally, and the amino acid sequence is SEQ ID No: 1; • the fourth group: take the peptide 2 (10 mg/kg) disclosed in Example 1 orally, and the amino acid sequence is SEQ ID No: 2; and • the fifth group 5: take the peptide 3 (10 mg/kg) disclosed in Example 1 orally, and the amino acid sequence is SEQ ID No: 3.
When the mice in each of the groups are raised to the 7th day, after 30 minutes of treatment according to the following conditions, a tail suspension test is carried out for 6 minutes, and the immobility time is measured in the last 4 minutes. The results are shown in FIG. 5, wherein the immobility time refers to a period of time in which the mice are suspended and completely still.

TrkB = TrkB and p-TrkB protein in hippocampal tissues, western blot; assay type: in vivo, mice; conditions: oral treatment for 8 days, compared with first group (distilled water)
Method: (§1) Take 5-week-old CD-1 mice, provide standard laboratory animal feed (Altromin, Germany) and distilled water (dH2O), and keep them for 12 hours at 22-24° C. for light/dark cycles. Before starting the test, each group of mice are raised in an experimental animal room for 1 week to adapt to the environment, and then the mice are randomly divided into 4 groups, and the mice in each of the groups are treated and raised for 8 days (referred to as the first day of rearing to the eighth day of rearing) according to the following conditions: • the first group: take distilled water orally; • the second group: take 150 mg/kg milk powder orally; • the third group: take 150 mg/kg kefir fermentation product orally; and • the fourth group: take 10 mg/kg drug trazodone hydrochloride orally.
(§2) After the test, the mice in each of the groups are anesthetized and their hippocampal tissues are isolated, and frozen and preserved for use in subsequent examples.
(§3) Expressions of protein and mRNA in the hippocampal tissues of the mice in each of the groups in Example 2 are assessed by quantitative RT-PCR method and western blot analysis, and the results are shown in FIG. 6 and FIG. 7, respectively.

[2] = tested on: BDNF (brain-derived neurotrophic factor); assay: BDNF mRNA expression in hippocampal tissues, quantitative RT-PCR; assay type: in vivo, mice; conditions: oral treatment for 8 days; compared with first group (distilled water)
Method: as §1, §2, §3

CD-1 mice [3] = assay: Forced swimming test (FST); assay type: in vivo; conditions: 7th day of rearing, 30 minutes after oral treatment, testing time 6 minutes; kefir fermentation product 150 mg/kg, trazodone hydrochloride 10 mg/kg; average±standard deviation
Method: as §1
The mice in each of the groups of Example 2 are treated for 30 minutes according to the above conditions on the 7th day of rearing, and then a swimming test is carried out, testing time is 6 minutes. Movement and immobility time are measured and analyzed with a camera. The results are shown in FIG. 4, wherein the immobility time is a period of time without active movement but only floating in the water; the movement time is a period of time with active movement or circular movement.

Erk1/2 = Erk1/2 and p-Erk1/2 protein in hippocampal tissues, western blot; assay type: in vivo, mice; conditions: oral treatment for 8 days, compared with first group (distilled water)
Method: as §1, §2, §3

CD-1 mice [4] = assay: Elevated plus maze test (EPMT); assay type: in vivo; conditions: 7th day of rearing, 6 hours after oral treatment, 5 minutes observed; compared with first group (distilled water); 150 mg/kg milk powder or kefir fermentation product, 10 mg/kg trazodone hydrochloride
Method: as §1
The mice in each of the groups of Example 1 are treated for 6 hours according to the above conditions on the 7th day of rearing, and then an elevated plus maze test is performed, and paths of the mice in each of the groups within 5 minutes are observed with a camera. The results are shown in FIGS. 2A to 2D, and the time of the mice in each of the groups spent on open arms or closed arms in the elevated plus maze is analyzed, and the results are shown in FIG. 2E to FIG. 2H.

CD-1 mice [5] = assay: Open field test (OFT); assay type: in vivo; conditions: 8th day of rearing, 30 minutes after oral treatment, 5 minutes in open field; compared with first group (distilled water)
Method: as §1
The mice in each of the groups in Example 2 are treated according to the above conditions for 30 minutes on the 8th day of rearing, and then an open field test is carried out. Specifically, the mice in each of the groups are first placed in an open field (45×45×40 cm) for 5 minutes, their travel paths and travel speeds are observed respectively, and the time it takes to reach the centers and the time spent at a fixed position are calculated.

For “peptide 2: YQEPVLGPVRGPFPI, SEQ ID No: 2; the kefir peptide of the invention, isolated from kefir fermentation product (artificiall obtained)”, the “immobility time in tail suspension test” value (CD-1 mice [1]) was 1.0 ± 0.2 min and the “movement time in tail suspension test” value (CD-1 mice [1]) was 3.0 ± 0.2 min.

For “peptide 3: KLHLPLPLVQSWM, SEQ ID No: 3; peptide isolated from kefir fermentation product, can also be chemically synthesized (artificiall obtained)”, the “immobility time in tail suspension test” value (CD-1 mice [1]) was 1.8 ± 0.3 min and the “movement time in tail suspension test” value (CD-1 mice [1]) was 2.2 ± 0.3 min.

For `O=c1n(CCCN2CCN(c3cccc(Cl)c3)CC2)nc2ccccn12` [trazodone hydrochloride], the “expression level of total TrkB protein in hippocampal tissues” value (TrkB) was “have not change significantly”, the “phosphorylation status p-TrkB/TrkB in hippocampal tissues” value (TrkB; P<0.05) was “increases significantly” and the “expression of BDNF mRNA in hippocampal tissues” value [2] was “significantly improved”. The “immobility time in swimming test” value (CD-1 mice [3]) was 0.9 ± 0.2 min, the “movement time in swimming test” value (CD-1 mice [3]) was 3.1 ± 0.3 min and the “expression level of total Erk1/2 protein in hippocampal tissues” value (Erk1/2) was “have not change significantly”. The “phosphorylation status p-Erk1/2/Erk1/2 in hippocampal tissues” value (Erk1/2; P<0.05) was “increases significantly”, the “paths of the mice in the elevated plus maze (movement to the open arms)” value (CD-1 mice [4]) was “move to the open arms” and the “movement distance in an open field” value (CD-1 mice [5]) was “move a longer distance”. For the same compound, the “movement speed in an open field” value (CD-1 mice [5]) was “move faster” and the “time spent at a fixed position in an open field” value (CD-1 mice [5]) was “spend less time at a certain fixed position”.
